Assay results taken from US10793533B2, “Dimeric contrast agents” (BRACCO IMAGING S.P.A., priority 2016, dated 2020).

Assay: Relaxometric properties: longitudinal relaxivity r1p in human plasma
Format: physicochemical
Settings: expressed per mM gadolinium; for r1p at 0.47 T 37° C., human plasma: 0.47 T (20 MHz); for r1p at 1.41 T 37° C., human plasma: 1.41 T (60 MHz)
Description: The relaxometric properties of some representative complex compounds according to the invention have been determined at different magnetic field strengths, e.g. including 0.47 and 1.41 T, at 37° C., in human plasma and compared with relaxivity values measured, at the same conditions, for some Gd-complex of the market having an analogous cyclic coordination cage.
The longitudinal water proton relaxation rate (R1=1/T1) was measured at 0.47 T with a Minispec MQ-20 spectrometer (Bruker Biospin, Germany) operating at a proton Larmor frequency of 20 MHz; MR experiments at 1.41 T were performed using a Minispec MQ-60 spectrometer (Bruker Biospin, Germany) operating at a proton Larmor frequency of 60 MHz.
All test articles were used as supplied and diluted in the selected medium (human plasma) by weighting the required amount of paramagnetic chelated complex to get a starting solution of 5 or 10 mM concentration in gadolinium.
Relaxivity Measurements Five different concentration samples (0.1, 0.25, 0.5, 0.75 and 1 mM in gadolinium) for each medium have been prepared by further dilution of the starting 5 or 10 mM solution.
Relaxivity measurements were performed at 0.47 T and 1.41 T at a preset temperature sample of 37° C., kept constant by means of a thermostatic bath connected to the sample holder of the spectrometer. The five sample solutions have been preliminary pre-heated at 37° C. in an external thermostatic bath and then left 10 minutes inside the internal bath to assure the stabilization of the temperature. Longitudinal relaxation time T1 was measured by means of a standard inversion recovery sequence, where the inversion time (TI) was varied from 10 ms to at least 5 times T1 in 15 steps. Statistical analysis (mono-exponential fitting for T1 measurement, linear fitting for the evaluation of longitudinal relaxivity) was performed by Mathematica® (Wolfram, USA). Errors on the estimated parameters were evaluated by the fitting procedure.
The relaxivity values r1p of some representative compounds according to the invention, obtained in human plasma at 37° C., are summarized in the following Table A, together with the structure of tested compounds and the strength of the applied magnetic field (in T), and compared with corresponding values measured for two commercial contrast agents in clinical practice having a macrocyclic chelating cage.

| r1p at 0.47 T 37° C., human plasma | r1p at 1.41 T 37° C., human plasma | SMILES |
| --- | --- | --- |
| 10.9 mM⁻¹ s⁻¹ | 10.4 mM⁻¹ s⁻¹ | O=C(O)CN1CCN(CC(=O)O)CCN(CC(O)CN(CCOCCOCCO)CC(O)CN2CCN(CC(=O)O)CCN(CC(=O)O)CCN(CC(=O)O)CC2)CCN(CC(=O)O)CC1 (stereo not drawn) |
| 10.6 mM⁻¹ s⁻¹ | 10.3 mM⁻¹ s⁻¹ | COCCOCCOCCOCCN(CC(O)CN1CCN(CC(=O)O)CCN(CC(=O)O)CCN(CC(=O)O)CC1)CC(O)CN1CCN(CC(=O)O)CCN(CC(=O)O)CCN(CC(=O)O)CC1 (stereo not drawn) |
| 10.1 mM⁻¹ s⁻¹ | 9.8 mM⁻¹ s⁻¹ | O=C(O)CN1CCN(CC(=O)O)CCN(CC(O)CN(CC(O)CN2CCN(CC(=O)O)CCN(CC(=O)O)CCN(CC(=O)O)CC2)C(COCCOCCO)COCCOCCO)CCN(CC(=O)O)CC1 (stereo not drawn) |
| 12.1 mM⁻¹ s⁻¹ | 11.5 mM⁻¹ s⁻¹ | COCCOCCOCCN(CCN(CCOCCOCCOC)CC(O)CN1CCN(CC(=O)O)CCN(CC(=O)O)CCN(CC(=O)O)CC1)CC(O)CN1CCN(CC(=O)O)CCN(CC(=O)O)CCN(CC(=O)O)CC1 (stereo not drawn) [Chelate Complex 9] |
| 4.5 mM⁻¹ s⁻¹ | 3.6 mM⁻¹ s⁻¹ | O=C(O)CN1CCN(CC(=O)O)CCN(CC(=O)O)CCN(CC(=O)O)CC1 [reference compound] |

| SMILES | r1p at 0.47 T 37° C., human plasma | r1p at 1.41 T 37° C., human plasma |
| --- | --- | --- |
| CC(O)CN1CCN(CC(=O)O)CCN(CC(=O)O)CCN(CC(=O)O)CC1 (stereo not drawn) (Gd complex, metal not drawn) [ProHance, reference compound] | 4.9 mM⁻¹ s⁻¹ | 4.15 mM⁻¹ s⁻¹ |
